Data as given in the CheMixHub viscosity set.
Values joined by “and” are separate entries in the source; they are usually repeats but may differ in a detail not shown here. Equal entries are not always repeated.

Assay: xn = mol fraction of the nth substance listed

CC(=O)OC(C)C(C)C (stereo not given) + C=CC#N
viscosity [mPa·s], 101.33 kPa
Conditions	x2 = 0.096	x2 = 0.1903	x2 = 0.287	x2 = 0.3796	x2 = 0.4771	x2 = 0.582	x2 = 0.6783	x2 = 0.7861	x2 = 0.894
298.15 K	0.761	0.726	0.684	0.641	0.595	0.54	0.493	0.44	0.388
303.15 K	0.71	0.681	0.641	0.601	0.558	0.51	0.465	0.417	0.37
308.15 K	0.663	0.639	0.604	0.565	0.526	0.48	0.44	0.396	0.353

COCCOC + CC1COC(=O)O1
viscosity
Conditions	298.15 K	308.15 K	318.15 K
101 kPa, x1 = 0.2	1.617 mPa·s and 1.616 mPa·s	–	–
101 kPa, x1 = 0.45	1.009 mPa·s and 1.007 mPa·s	–	–
101 kPa, x1 = 0.7	0.66 mPa·s and 0.659 mPa·s	–	–
101.33 kPa, x1 = 0.0493	2.227 mPa·s	1.833 mPa·s	1.561 mPa·s
101.33 kPa, x1 = 0.0999	1.96 mPa·s	1.659 mPa·s	1.417 mPa·s
101.33 kPa, x1 = 0.1524	1.752 mPa·s	1.495 mPa·s	1.277 mPa·s
101.33 kPa, x1 = 0.1867	1.637 mPa·s	1.402 mPa·s	–
101.33 kPa, x1 = 0.2298	1.507 mPa·s	1.297 mPa·s	1.113 mPa·s
101.33 kPa, x1 = 0.2769	–	1.183 mPa·s	–
101.33 kPa, x1 = 0.3128	1.289 mPa·s	–	0.9676 mPa·s
101.33 kPa, x1 = 0.3708	1.162 mPa·s	0.9973 mPa·s	0.881 mPa·s
101.33 kPa, x1 = 0.4036	1.097 mPa·s	0.9447 mPa·s	0.8272 mPa·s
101.33 kPa, x1 = 0.4686	0.9699 mPa·s	–	–
101.33 kPa, x1 = 0.5193	0.8882 mPa·s	0.7779 mPa·s	0.6827 mPa·s
101.33 kPa, x1 = 0.5704	–	0.7178 mPa·s	0.6389 mPa·s
101.33 kPa, x1 = 0.6382	0.7272 mPa·s	–	0.5728 mPa·s
101.33 kPa, x1 = 0.6767	0.6885 mPa·s	0.6105 mPa·s	0.5449 mPa·s
101.33 kPa, x1 = 0.7589	0.6047 mPa·s	–	0.4782 mPa·s
101.33 kPa, x1 = 0.8103	0.5589 mPa·s	0.5052 mPa·s	0.4571 mPa·s
101.33 kPa, x1 = 0.8432	0.5429 mPa·s	0.4728 mPa·s	0.4376 mPa·s
101.33 kPa, x1 = 0.9035	0.4872 mPa·s	0.4381 mPa·s	0.397 mPa·s
101.33 kPa, x1 = 0.9483	0.4564 mPa·s	0.4073 mPa·s	0.375 mPa·s
101.33 kPa, x2 = 0.2217	0.5911 mPa·s	0.5265 mPa·s	0.4711 mPa·s
101.33 kPa, x2 = 0.3749	0.7628 mPa·s	0.6716 mPa·s	0.5956 mPa·s
101.33 kPa, x2 = 0.5841	1.099 mPa·s	0.9453 mPa·s	0.8342 mPa·s
101.33 kPa, x2 = 0.7836	1.594 mPa·s	1.356 mPa·s	1.168 mPa·s
